This is an account of results in patent publication US20090311723A1, “FLUORESCENCE-BASED ASSAY FOR MONOACYLGLYCEROL LIPASE COMPATIBLE WITH INHIBITOR SCREENING” (WYETH, priority 2007, published 2009).

Data set [1] can be described thus: Stability of 7-HCA in assay buffer over time. The conditions noted are these: 25° C. The class given is physicochemical. How it is done: The stability of 7-HCA in assay buffer was monitored over time and found to be stable for at least 5 hours at 25° C.
In data set [2] the target is T1, recombinant human MGL protein (Homo sapiens, UniProt Q99685).
T1 construct: a mixture of forward and reverse primers spanning the entire coding region; made in house; host or cells: E. coli BL21
T1 sequence (Q99685 1-303): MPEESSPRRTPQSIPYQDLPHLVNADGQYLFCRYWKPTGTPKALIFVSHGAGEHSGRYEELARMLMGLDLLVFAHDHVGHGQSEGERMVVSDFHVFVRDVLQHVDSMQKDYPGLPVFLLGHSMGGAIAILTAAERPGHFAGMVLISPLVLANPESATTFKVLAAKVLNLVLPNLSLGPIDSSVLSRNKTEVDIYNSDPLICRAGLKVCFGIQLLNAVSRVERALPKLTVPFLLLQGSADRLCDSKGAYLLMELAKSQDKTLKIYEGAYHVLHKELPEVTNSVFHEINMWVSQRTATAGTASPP
Put plainly: Fluorescence assay of MGL inhibition with 7-HCA as substrate. The class given is biochemical. The conditions noted are these: for IC50: 3 ng MGL, 10 μM 7-HCA, pH 8, 25° C., 60 minutes. The method, then: For measuring MGL inhibition by compounds, 3 ng protein per assay were incubated with indicated concentrations of the compound in the presence of 10 mM 7-HCA for 60 minutes. The reactions were stopped and processed as described above. Results are presented as the mean±S.E. of triplicate measurements from at least two independent experiments. The IC50 values were calculated by […]™ Prism 3.02 program using a sigmoidal dose-response equation.
Inhibition of MGL activity by URB602 was studied by treating 3 ng of MGL protein with increasing concentrations of URB602 with 7-HCA as substrate at pH 8, and 25° C., for 60 minutes in a total volume of 50 μl.
According to FIG. 7, the assay was carried out by incubating 3 ng of MGL protein with 10 μM 7-HCA and indicated concentrations of compounds in 50 mM HEPES, pH 8, 1 mM EDTA and 10% DMSO, at 25° C. for 60 minutes. The percent inhibition of MGL activity was plotted against compound concentration, and the IC50 was calculated by fitting the curve to a non-linear regression equation using […]™ Prism 3.02. Each data point represents mean±SD (n=3) from at least 2 individual experiments.

For data set [3], the target named is T2, MGL (Rattus norvegicus, UniProt Q8R431).
T2 sequence (Q8R431 1-303): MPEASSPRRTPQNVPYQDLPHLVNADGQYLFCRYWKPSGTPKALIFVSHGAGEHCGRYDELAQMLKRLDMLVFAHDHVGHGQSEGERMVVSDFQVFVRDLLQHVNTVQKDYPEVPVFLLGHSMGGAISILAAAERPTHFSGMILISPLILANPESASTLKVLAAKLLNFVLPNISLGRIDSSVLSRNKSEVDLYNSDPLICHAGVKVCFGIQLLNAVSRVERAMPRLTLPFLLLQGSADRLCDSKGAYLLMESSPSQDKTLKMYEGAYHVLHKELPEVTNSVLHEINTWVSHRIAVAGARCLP
On the set-up: from tissue; host or cells: rat brain, periaqueductal grey, in vivo (reported from Hohmann 2005). The settings on record: micro-injection into periaqueductal grey, blocked by CB1 antagonist SR141716; cited from earlier work.

For data set [4], the target named is T2, MGL. The settings on record: Makara 2005; later demonstrated to be false positive (impurity); read-out: IC50 of MGL previously reported; cited from earlier work.
Substrate in data set [5]: C=CCCCCC(=O)Oc1ccc2ccc(=O)oc2c1
Put plainly: Rate of hydrolysis of fluorogenic substrates by MGL (Michaelis-Menten kinetics, 7-HC fluorescence). The class given is biochemical, human. The conditions noted are these: other: 3 ng/well MGL, 10% DMSO, pH 8.0, room temperature, read after 10 minutes, ND = not detectable activity. How it is done: (§1) The assay was performed in a 384-well black plate (NUNC) in a total volume of 50 μl. A typical assay consisted of 3 ng of MGL protein, 10 mM 7-HCA substrate (prepared in DMSO) in assay buffer consisting of 50 mM HEPES, pH 8, 1 mM EDTA, and […] of inhibitor solution or DMSO (10% final concentration). The components were mixed and incubated on a shaker for 10-60 min and the plate was read in a fluorescence plate reader (SPECTRAMAX™-Gemini; Ex: 355 nm; Em: 460 nm). The reaction was carried out at 25° C., and the fluorescence was monitored in the kinetic mode. The fluorescence units were converted to amount of product based on the standard curve generated with 7-HC. The data were analyzed using GRAPHPAD™ Prism Version 3.02. The observed rate constants (apparent KM) were calculated using GRAPHPAD™ Prism 3.02 based on a Michaelis-Menten (one site binding hyperbola) equation Y=BmaxX/[Kd+X].
(§2) Table 3, shown below, depicts rates of hydrolysis for MGL with representative fluorogenic substrates. Rates were measured at reactions containing 3 ng/well MGL protein, a series of concentrations of above compounds in 10% DMSO, pH 8.0, and room temperature. The 7-HC fluorescence (λex=355 nm, λem=460 nm) was read after 10-minutes. The data were analyzed and the Vmax and Km calculated using the Michaelis-Menten equation. *ND means “not detectable activity.”
(§3) The kinetic constants, KM (apparent) and Vmax were calculated by determining the MGL activity with increasing substrate concentrations. 3 ng MGL protein were incubated with increasing 7-HCA concentrations, at pH 8, 25° C., for 10 minutes in a 384-well black plate, in a total volume of 50 μl. Specific activity of MGL was plotted against the substrate concentration and the data was fit to a non-linear regression equation (FIG. 6). […] The Lineweaver-Burk plot is shown as an insert within FIG. 6.
(§4) According to FIG. 6, a 50 μl MGL reaction, containing 3 ng/well MGL protein, the indicated concentrations of 7-HCA and 10% DMSO, was performed at room temperature. The 7-HC fluorescence (λex=355 nm, λem=460 nm) was read after 10-minutes. The data were analyzed and the Vmax and KM calculated using the Michaelis-Menten equation. A Lineweaver-Burk plot of 7-HCA hydrolysis by substrate is also shown.

Substrate in data set [6]: CCCCC/C=C\C/C=C\C/C=C\C/C=C\CCCC(=O)Oc1ccc2ccc(=O)oc2c1
Described as above. The class given is biochemical, human. The conditions noted are these: other: 3 ng/well MGL, 10% DMSO, pH 8.0, room temperature, read after 10 minutes, ND = not detectable activity. The method, then:
as §1, §2, §3, §4

For `CCCCC/C=C\C/C=C\C/C=C\C/C=C\CCCC(=O)Oc1ccc2ccc(=O)oc2c1` [7-HCA, 7-Hydroxycoumarinyl-arachidonate], the “stability in assay buffer” value in data set [1] is listed as “at least 5 hours”.

As to `CCCCC/C=C\C/C=C\C/C=C\C/C=C\CCCCN1C(=O)C=CC1=O` [N-Arachidonyl Maleimide (NAM), N-Arachidonyl Maleimide], in data set [2], the IC50 was determined as 155 nM.

As for `O=C(Nc1cccc(-c2ccccc2)c1)OC1CCCCC1` [URB602], the IC50 in data set [2] was 3600 nM; in data set [2] (listed as URB-602) it was 3100 nM. At MGL [3], the “effect on stress-induced antinociception” value is given as “enhanced stress-induced antinociception”.

`Cc1ccc(Nc2nc3ccc(C)cc3c(=O)o2)cc1` [URB754]: the “inhibition of MGL activity (negative control)” value in data set [2] (concentrations up to 100 μM) is “failing to inhibit MGL activity”. In addition, on MGL [4], the IC50 is 50 nM.

B1: recombinant human MGL protein (Homo sapiens) (protein)
chain: MPEESSPRRTPQSIPYQDLPHLVNADGQYLFCRYWKPTGTPKALIFVSHGAGEHSGRYEELARMLMGLDLLVFAHDHVGHGQSEGERMVVSDFHVFVRDVLQHVDSMQKDYPGLPVFLLGHSMGGAIAILTAAERPGHFAGMVLISPLVLANPESATTFKVLAAKVLNLVLPNLSLGPIDSSVLSRNKTEVDIYNSDPLICRAGLKVCFGIQLLNAVSRVERALPKLTVPFLLLQGSADRLCDSKGAYLLMELAKSQDKTLKIYEGAYHVLHKELPEVTNSVFHEINMWVSQRTATAGTASPP
notes: a mixture of forward and reverse primers spanning the entire coding region; made in house; host or cells: E. coli BL21
As to B1, the Michaelis-Menten constant (Km) in data set [5] stood at 9.3 µM; in data set [6], 9.8 µM. The Vmax in data set [5] was 1.3 µmol/min/mg; in data set [6] it was 1.7 µmol/min/mg.
